Test results taken from patent US10316008B2, “KCNQ potassium channel agonist, and preparation method therefor and use thereof” (SHANGHAI INSTITUTE OF MATERIA MEDICA, CHINESE ACADEMY OF …, priority 2014, dated 2019).
Entries after “also recorded” stand apart in the source; their conditions may differ. Counter-ions that a name gives are not always drawn. Like-named read-outs stand apart in the source and are kept apart here.

What was measured:
[1] = test system: convulsive mice induce by MES; test: MES (maximum electroshock) induced convulsion model, oral perfusion; format: in vivo, KM mice; details: for efficacy against MES compared with RTG / ED50: mice; for ED50: Mus musculus, 0.5 h, oral perfusion, MES 30 mins after administration, read-out: ED50 (50% effective dose); for protective effect on convulsive mice induce by MES: orally administered
Excerpt: YLS-9A model physiological pharmaceutical electronic stimulator was used in the experiment to induce convulsion of mice, and specific parameters were set as follows: configuration 8, stimulating voltage: 160V, period of stimulation: 5.4 sec. Healthy KM mice (SPF level, male, body weight: 18 to 22 g) were selected for the experiment. After the ear tip of the mice was sufficiently wetted with physiological saline, the mice was electrically stimulated once with ear clip electrode, and tonic hind-limb seizure was deemed as indication of convulsion. The mice were screened one day before the experiment to weed out the dead mice and the ones without generalized tonic seizure. The qualified mice were caged randomly with access to water at liberty. Before the experiment started, the mice were fasted for 8 h.
The compounds to be tested were freshly formulated on the day of experiment. RTG hydrochloride was dissolved with ultrapure water to obtain a solution with desired concentration. K41.HCl and K43.HCl were formulated with 5% DMSO+95% of 1% Tween80, that is, a proper amount of the compound to be tested was weighted and, first, sufficiently dissolved in 5% DMSO, and then added with a desire volume of 1% Tween80 to be sufficiently suspended to form a suspension with a certain drug concentration. The mice screened one day before were randomly grouped with each group having 10 mice, marked, weighted and then administered with the compound to be tested or solvent (5% DMSO+95% (1% Tween 80)) by oral perfusion with administered volume of 0.2 ml/10 g. The dose range for each compound was 1 to 56 mg/kg for RTG, 1 to 40 mg/kg for K41.HCl, and 0.5 to 4 mg/kg for K43.HCl. 30 mins after administration, MES experiment was performed and the experimental parameters were the same as the above. The number of mice with generalized tonic-clonic convulsion in each group was recorded, the protection rate of each of the compounds to be tested on convulsive mice induce by MES was calculated and dose-response curve for each compound was plotted. The dose-response curve for each compound was obtained according to the analysis of Graphpad Prism 5 software, as shown in FIG. 3.

[2] = Pharmacokinetics and distribution in brain tissue in mice; format: in vivo, ICR mice; details: for Kp: brain/plasma, read-out: AUC0-t ratio (brain/plasma); for Kp / Cmax / Tmax / half-life / MRT inf / AUC(0-inf) / AUC0-t / clearance / Vd / AUC0-∞: mice; for MRT inf: read-out: MRT0-∞; for Vd: read-out: Vss; for bioavailability: oral, ICR mice, intragastric perfusion 5 mg/kg vs intravenous 2 mg/kg, read-out: F (oral bioavailability)
Protocol: K43.HCl was formulated to a 0.5 mg/ml solution for intragastric perfusion by using 5% DMSO/5% Tween80/[…] physiological saline; to a 0.2 mg/ml solution for intravenous injection by diluting the above solution for intragastric perfusion with physical saline containing 1% Tween 80.
84 healthy ICR mice (male, body weight, 18-20 g) were fasted for 8 h with access to water at liberty before the experiment. The mice were fed at the same time 2 h after administration of the compound.
After administration by intragastric perfusion, mice were sacrificed by cutting abdominal aorta at the time points set as the above with 3 mice for each time point. 0.5 mL of whole blood was collected for each animal, placed into a heparinized test tube and subjected to centrifugation at 11000 rpm for 5 min to separate plasma, which was then cryopreserved in a −20° C. refrigerator. After the animal was sacrificed, its whole brain was collected, washed with ice-cooled physiological saline to remove residual blood, absorbed to dryness, labeled and cryopreserved in a −20° C. refrigerator. After administration by intravenous injection, 0.5 mL of venous blood was collected from venous plexus behind eyeball, placed into a heparinized test tube and subjected to centrifugation at 11000 rpm for 5 min to separate plasma, which was then cryopreserved in a −20° C. refrigerator. The concentration of each compound in plasma and brain tissue was determined by LC-MS/MS.
Pharmacokinetic parameters after administration were calculated according to the obtained data of plasma concentration, using the non-compartmental model of Phoenix 1.3 software (Pharsight Co., USA).

[3] = test system: motor coordination ability of mice; test: Rotarod experiment, motor coordination ability (acute neurotoxicity); format: in vivo, KM mice; details: for P.I (Protective index)=TD50/ED50: TD50 Rotarod / ED50 MES
Protocol: (§1) YLS-4C Rotarod system was used in the experiment, wherein the diameter of the rod was 3 cm and the rotate speed was set at 6 rpm. Healthy KM mice (SPF level) were selected, wherein male and female were equal, the body weight was 18 to 22 g. One day before experiment, the mice were place on the rotarod for training and screening. The tail tip of mice was held to make them creep on the rotarod during the training. […] The mice that jumped on the rotarod or griped the rotarod were weed out. In addition, three time periods were set with 1 min for each. […] The qualified mice were randomly caged according to the gender, and allowed to eat and drink freely.
(§2) On the day of the experiment, each compound to be tested was freshly formulated by the same method as described in MES experiment. If the compound was not sufficiently suspended, the suspension was further mixed by ultrasonication for 20 min so as to make the compound sufficiently suspended. […] 30 mins after administration, Rotarod experiment was performed and the experiment parameters were the same as the above. The number of mice that fell off from the rorarod was recorded, and the influence of each compound on motor coordination ability of mice was analyzed. The curve for dose of each compound verse motor deficit (percentage) of mice for each compound was obtained according to the analysis of Graphpad Prism 5 software and was shown in FIG. 4.

[4] = as above; format: in vivo, KM mice; details: both sexes, KM, mouse, in vivo; mice, oral perfusion, Rotarod 30 mins after administration; read-out: TD50 (50% acute neurotoxicity dose)
Protocol: as §1, §2

[5] = male, ICR, mouse, po, intragastric perfusion 5 mg/kg
[6] = male, ICR, mouse, po, intragastric perfusion 5 mg/kg, brain
[7] = male, ICR, mouse, po, intragastric perfusion 5 mg/kg, plasma
[8] = male, ICR, mouse, po, intragastric perfusion 5 mg/kg, plasma, read-out: AUC0-t
[9] = male, ICR, mouse, intravenous injection 2 mg/kg, plasma
[10] = male, ICR, mouse, intravenous injection 2 mg/kg, plasma, read-out: AUC0-t
[11] = intragastric perfusion 5 mg/kg, brain

Structure (SMILES)	Kp [2, 5]	neurotoxicity compared with RTG [3]	ED50 [1]	protective effect on convulsive mice induce by MES [1]	Cmax [2, 6]	Tmax [2, 6]	half-life [2, 6]	MRT inf [2, 6]	AUC(0-inf) [2, 7]	Cmax [2, 7]	Tmax [2, 7]	half-life [2, 7]	AUC0-t [2, 8]	MRT inf [2, 7]	AUC(0-inf) [2, 9]	clearance [2, 9]	half-life [2, 9]	AUC0-t [2, 10]	MRT inf [2, 9]	Vd [2, 9]	other results
C#CCN(Cc1ccc(F)cc1)c1cc(C)c(NC(=O)OC)c(C)c1 [Compound K43, methyl 4-(N-parafluorobenzyl-N-propargyl-amino)-2,6-dimethylphenylaminoformate]	≥ 7	weaker neurotoxicity than RTG																			efficacy against MES compared with RTG [1]: higher than that of RTG; also recorded: superior to that of RTG
C#CCN(Cc1ccc(F)cc1)c1cc(C)c(NC(=O)OC)c(C)c1.Cl [K43•HCl, methyl 4-(N-parafluorobenzyl-N-propargyl-amino)-2,6-dimethylphenylaminoformate hydrochloride]	7.2		1.6 mg/kg	dose dependent protective effect	1430 ng/g	15 min	63.6 min	77.4 min	189 ng·h/mL	350 ng/mL	15 min	37.2 min	184 ng·h/mL	56.4 min	334 ng·h/mL	100 mL/min/kg	24 min	326 ng·h/mL	25.8 min	2.61 L/kg	bioavailability ([2]; male, mouse, plasma): 22.5%; AUC0-t [2, 11]: 1329 ng·h/g; AUC0-∞ [2, 11]: 1346 ng·h/g; P.I (Protective index)=TD50/ED50 [3]: 95.25; TD50 at 30 min [4]: 152 mg/kg
C#CCN(Cc1ccc(F)cc1)c1ccc(NC(=O)OC)c(C)c1 [K41•HCl]	2.6	weaker neurotoxicity than RTG	4.8 mg/kg	dose dependent protective effect	1470 ng/g	15 min	37.8 min	66 min	654 ng·h/mL	606 ng/mL	15 min	38.4 min	646 ng·h/mL	62.4 min	294 ng·h/mL	114 mL/min/kg	29.4 min	281 ng·h/mL	27 min	3.04 L/kg	efficacy against MES compared with RTG ([1]; listed as K31): higher than that of RTG; efficacy against MES compared with RTG ([1]; listed as k41): superior to that of RTG; bioavailability ([2]; male, mouse, plasma): 91.9%; AUC0-t [2, 11]: 1680 ng·h/g; AUC0-∞ [2, 11]: 1684 ng·h/g; P.I (Protective index)=TD50/ED50 [3]: 21.54; TD50 at 30 min [4]: 103 mg/kg
